Results: ChEMBL document CHEMBL4680317, “In vitro and in vivo effects of inhibitors on actin and myosin” (Bioorg Med Chem, 2021)
The source made the active and inactive calls. No cut-off for these calls is given here.

Assays:
[1] = species: Oryctolagus cuniculus; test: Inhibition of rabbit muscle G-actin polymerization assessed as polymerized G-actin level at 25 uM incubated for 15 mins by spectrophotometric analysis (reference value: 100 %); format: tissue-based; set-up: scale not given: the % may be the effect or the level left; conditions: Muscle tissue
[2] = system: MDA-MB-231; test: Induction of cell morphological changes in human MDA-MB-231 cells assessed as membrane blebbing by inverted microscopy; format: functional, cell-based
[3] = system: MDA-MB-231; test: Antimigratory activity against human MDA-MB-231 cells assessed as cell migration at 2.5 uM by light microscopy relative to control; format: functional
[4] = system: MDA-MB-231; test: Antimigratory activity against human MDA-MB-231 cells assessed as minimum effective concentration by light microscopy; format: functional
[5] = system: MDA-MB-231; test: Cytotoxicity against human MDA-MB-231 cells assessed as reduction in cell viability incubated for 4 hrs by neutral red uptake assay; format: cell-based; conditions: mda-mb-231, 4 h
[6] = Cardiotoxicity in medaka embryo post hatching 24 hrs assessed as reduction in heart beat at 1.25 uM measured after 1 hr; format: toxicity; conditions: oryzias latipes
[7] = system: MDA-MB-231; test: Antimigratory activity against human MDA-MB-231 cells assessed as cell migration by light microscopy; format: functional, cell-based
[8] = species: Oryctolagus cuniculus; test: Inhibition of rabbit muscle F-actin depolymerization incubated for 15 mins by spectrophotometric analysis; format: tissue-based; conditions: Muscle tissue, dose 25-100 µM
[9] = Cardiotoxicity in medaka embryo post hatching 24 hrs assessed as reduction in heart beat at 25 uM measured after 1 hr; format: toxicity; conditions: oryzias latipes
[10] = target: Myosin light chain kinase 2, skeletal/cardiac muscle (Oryctolagus cuniculus) (UniProt P07313); test: Inhibition of rabbit skeletal muscle myosin-2 ATPase incubated for 20 mins followed by ATP addition and measured after 20 mins; format: tissue-based; conditions: Skeletal muscle tissue, time 40.0 min
Sequence of Myosin light chain kinase 2, skeletal/cardiac muscle (Oryctolagus cuniculus) (P07313 whole entry): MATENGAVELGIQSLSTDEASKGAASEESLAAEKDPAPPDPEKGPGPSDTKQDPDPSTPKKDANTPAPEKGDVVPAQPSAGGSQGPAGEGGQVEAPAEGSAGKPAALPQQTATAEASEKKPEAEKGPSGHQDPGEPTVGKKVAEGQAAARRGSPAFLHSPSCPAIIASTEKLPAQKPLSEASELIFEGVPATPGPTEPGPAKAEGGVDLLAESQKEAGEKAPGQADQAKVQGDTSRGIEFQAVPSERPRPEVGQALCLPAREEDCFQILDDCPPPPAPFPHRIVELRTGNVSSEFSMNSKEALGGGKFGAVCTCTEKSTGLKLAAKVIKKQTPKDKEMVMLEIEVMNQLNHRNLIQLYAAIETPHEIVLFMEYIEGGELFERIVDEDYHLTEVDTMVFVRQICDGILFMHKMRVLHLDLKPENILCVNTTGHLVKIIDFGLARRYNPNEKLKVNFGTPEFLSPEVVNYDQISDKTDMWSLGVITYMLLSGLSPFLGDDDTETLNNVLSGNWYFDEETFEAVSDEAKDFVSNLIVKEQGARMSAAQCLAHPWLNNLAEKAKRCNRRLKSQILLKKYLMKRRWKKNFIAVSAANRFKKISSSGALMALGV

[11] = species: Oryctolagus cuniculus; test: Inhibition of rabbit muscle F-actin depolymerization at 50 to 100 uM incubated for 15 mins by spectrophotometric analysis; format: tissue-based; conditions: Muscle tissue, dose 50-100 µM
[12] = system: MDA-MB-231; test: Induction of cell morphological changes in human MDA-MB-231 cells assessed as membrane blebbing at 2 uM measured after 30 mins by inverted microscopy; format: functional, cell-based
[13] = system: MDA-MB-231; test: Antimigratory activity against human MDA-MB-231 cells assessed as cell migration at 5 uM by light microscopy relative to control; format: functional
[14] = Cardiotoxicity in medaka embryo post hatching 24 hrs assessed as reduction in heart beat at 10 uM measured after 1 hr; format: toxicity; conditions: oryzias latipes
[15] = Cardiotoxicity in medaka embryo post hatching 24 hrs assessed as reduction in heart beat at 17.5 uM measured after 1 hr; format: toxicity; conditions: oryzias latipes
[16] = system: MDA-MB-231; test: Induction of cell morphological changes in human MDA-MB-231 cells assessed as membrane blebbing at 500 nM measured after 40 sec by inverted microscopy; format: functional, cell-based
[17] = system: MDA-MB-231; test: Antimigratory activity against human MDA-MB-231 cells assessed as cell migration at 10 uM by light microscopy relative to control; format: functional

SMILES	Activity [1]	Activity [2]	Activity [3]	LED [4]	Activity [5]	Activity [6]	inhibition [7]	inhibition [8]	Activity [9]	inhibition [10]	inhibition [11]	Activity [12]	Activity [13]	Activity [14]	Activity [15]	Activity [16]	Activity [17]
Oc1c(Br)cc(Br)cc1-c1[nH]c(Br)c(Br)c1Br [PENTABROMOPSEUDILIN]	104%	inactive	67%	1 µM	Toxic	Toxic	Dose-dependent effect	–	–	–	–	–	–	–	–	–	–
O=c1c(O)c(-c2ccc(O)c(O)c2)oc2cc(O)cc(O)c12 [QUERCETIN]	74.5%	inactive	inactive	–	–	–	–	Dose-dependent effect	Non-Toxic	–	–	–	–	–	–	–	–
Oc1c(Cl)cc(Cl)cc1-c1[nH]c(Cl)c(Cl)c1Cl [PENTACHLOROPSEUDILIN]	38.4%	–	62.6%	1 µM	Toxic	Toxic	Dose-dependent effect	–	–	Dose-dependent effect	–	–	–	–	–	–	–
Oc1cc(O)c2c(c1)O[C@H](c1cc(O)c(O)c(O)c1)[C@H](O)C2 [EPIGALLOCATECHIN]	118%	inactive	inactive	–	–	–	–	–	Non-Toxic	–	–	–	–	–	–	–	–
Cc1ccc2c(c1)C(=O)[C@]1(O)CCN(c3ccccc3)C1=N2	78.7%	–	–	5 µM	–	–	–	–	–	–	Active	inactive	136.6%	Toxic	Non-Toxic	–	–
C=C1[C@@H](C)[C@H]2[C@H](Cc3ccccc3)NC(=O)[C@]23OC(=O)/C=C/[C@H](O)CCC[C@@H](C)C/C=C/[C@H]3[C@@H]1O [CYTOCHALASIN B]	43.5%	–	–	–	Toxic	–	–	–	–	–	Active	–	–	Non-Toxic	–	Active	8.2%
O=c1c(O)c(-c2ccc(O)cc2)oc2cc(O)cc(O)c12 [KAEMPFEROL]	71.8%	inactive	70%	2.5 µM	–	–	–	Dose-dependent effect	Non-Toxic	–	–	–	–	–	–	–	–
